Assays:
HCT116p53-/- = assay: Cytotoxic MTS assay, HCT116p53-/-; type: cell-based; conditions: Homo sapiens, 72 h, p53 knock-down colorectal tumor
Description: (§1) Cytotoxic activity of all synthesized compounds was investigated in vitro against eight human cancer cell lines and two non-tumor fibroblasts using the standard MTS test (Table 1). The cancer cell lines were derived from T-lymphoblastic leukemia CCRF-CEM, leukemia K562 and their multiresistant counterparts expressing P-glycoprotein, MRP1 and LRP proteins (CEM-DNR, K562-TAX), solid tumors including lung (A549) and colon (HCT116, HCT116p53-/-) carcinomas, osteosarcoma cell line (U2OS), and for comparison, tests were performed on two human non-cancer fibroblast cell lines (BJ, MRC-5).
(§2) Biological assays were performed in concordance with our previous publications [[29], [58]; [60]; [61]]. All cells (if not indicated otherwise) were purchased from the American Tissue Culture Collection (ATCC). The CCRF-CEM line is derived from T lymphoblastic leukemia, evincing high chemosenzitivity, K562 represent cells from an acute myeloid leukemia patient sample with bcr-abl translocation, U2OS line is derived from osteosarcoma, HCT116 is colorectal tumor cell line and its p53 gene knock-down counterpart (HCT116p53-/-, Horizon Discovery Ltd, UK) is a model of human cancers with p53 mutation frequently associated with poor prognosis, A549 line is lung adenocarcinoma. The daunorubicin resistant subline of CCRF-CEM cells (CEM-DNR bulk) and paclitaxel resistant subline K562-TAX were selected in our laboratory by the cultivation of maternal cell lines in increasing concentrations of daunorubicine or paclitaxel, respectively. The CEM-DNR bulk cells overexpress MRP-1 and P-glycoprotein protein, while K562-TAX cells overexpress P-glycoprotein only. Both proteins belong to the family of ABC transporters and are involved in the primary and/or acquired multidrug resistance phenomenon. MRC-5 and BJ cell lines were used as a non-tumor control and represent human fibroblasts. The cells were maintained in nunc/corning 80 cm^2 plastic tissue culture flasks and cultured in cell culture medium according to ATCC or Horizon recommendations (DMEM/RPMI 1640 with 5 g/L glucose, 2 mM glutamine, 100 U/mL penicillin, […] streptomycin, 10% fetal calf serum, and NaHCO3).
(§3) MTS assay was performed at Institute of Molecular and Translational Medicine by robotic platform (HighResBiosolutions). Cell suspensions were prepared and diluted according to the particular cell type and the expected target cell density (25000–35000 cells/mL based on cell growth characteristics). Cells were added by automatic pipetor (30 μL) into 384 well microtiter plates. All tested compounds were dissolved in 100% DMSO and four-fold dilutions of the intended test concentration were added in 0.15 μL aliquots at time zero to the microtiter plate wells by the echoacustic non-contact liquid handler Echo550 (Labcyte). The experiments were performed in technical duplicates and three biological replicates at least. The cells were incubated with the tested compounds for 72 h at 37°C, in a 5% CO2 atmosphere at 100% humidity. At the end of the incubation period, the cells were assayed by using the MTS test. Aliquots (5 μL) of the MTS stock solution were pipetted into each well and incubated for additional 1–4 h. After this incubation period, the optical density (OD) was measured at 490 nm with an Envision reader (Perkin Elmer). Tumor cell survival (TCS) was calculated by using the following equation: TCS = (ODdrug-exposed well/mean ODcontrol wells) × 100%. The IC50 value, the drug concentration that is lethal to 50% of the tumor cells, was calculated from the appropriate dose-response curves in Dotmatics software.

K562 = assay: Cytotoxic MTS assay, K562; type: cell-based; conditions: Homo sapiens, 72 h, leukemia
Description: as §1, §2, §3

HCT116 = assay: Cytotoxic MTS assay, HCT116; type: cell-based; conditions: Homo sapiens, HCT-116, 72 h, colorectal tumor
Description: as §1, §2, §3

MRC-5 = assay: Cytotoxic MTS assay, MRC-5 fibroblasts; type: cell-based; conditions: Homo sapiens, MRC5, 72 h, non-tumor fibroblasts
Description: as §1, §2, §3

A549 = assay: Cytotoxic MTS assay, A549; type: cell-based; conditions: Homo sapiens, 72 h, lung adenocarcinoma
Description: as §1, §2, §3

BJ = assay: Cytotoxic MTS assay, BJ fibroblasts; type: cell-based; conditions: Homo sapiens, 72 h, non-tumor fibroblasts
Description: as §1, §2, §3

CCRF-CEM cells [1] = assay: pH3Ser10 antibody labeling, flow cytometry of mitotic cells; type: cell-based, human
Protocol: (§4) Together with the treated cells, control sample containing vehicle was harvested at the same time point after 24 h. After another 24 hours, cells were then washed with cold PBS and fixed in 70% ethanol added dropwise and stored overnight at -20°C. Afterwards, cells were washed in hypotonic citrate buffer, treated with RNAse (50 μg/mL) and stained with propidium iodide. Flow cytometer using a 488 nm single beam laser (Becton Dickinson) was used for measurement. Cell cycle was analyzed in the program ModFitLT (Verity), and apoptosis was measured in logarithmic model expressing percentage of the particles with propidium content lower than cells in G0/G1 phase (<G1) of the cell cycle. Half of the sample was used for pH3^Ser10 antibody (Sigma) labeling and subsequent flow cytometry analysis of mitotic cells.

CCRF-CEM cells [2] = assay: Cell cycle and apoptosis analysis (propidium iodide flow cytometry); type: cell-based, human
Protocol: as §4

CEM-DNR = assay: Cytotoxic MTS assay, CEM-DNR; type: cell-based; conditions: Homo sapiens, 72 h, daunorubicin resistant subline of CCRF-CEM
Description: as §1, §2, §3

U2OS = assay: Cytotoxic MTS assay, U2OS; type: cell-based; conditions: Homo sapiens, 72 h, osteosarcoma
Description: as §1, §2, §3

CCRF-CEM = assay: Cytotoxic MTS assay, CCRF-CEM; type: cell-based; conditions: Homo sapiens, 72 h, T-lymphoblastic leukemia
Description: as §1, §2, §3

CCRF-CEM cells [3] = assay: BrDU incorporation analysis (DNA synthesis); type: cell-based, human; set-up: DNA synthesis: unit not given here
Protocol: as §4
For this analysis, the same procedure of cultivation as previously was used. Before harvesting, 10 μM 5-bromo-2-deoxyuridine (BrDU), was added to the cells for puls-labeling for 30 min. Cells were fixed with ice-cold 70% ethanol and stored overnight. Before the analysis, cellswere washed with PBS, and resuspended in 2 M HCl for 30 min at room temperature to denature their DNA. Following neutralization with 0.1 M Na2B4O7 (Borax), cells were washed with PBS containing 0.5% Tween-20 and 1% BSA. Staining with primary anti-BrDU antibody (Exbio) for 30 min at room temperature in the dark followed. Cells were than washed with PBS and stained with secondary antimouse-FITC antibody (Sigma). Cells were then washed with PBS again and incubated with propidium iodide (0.1 mg/mL) and RNAse A (0.5 mg/mL) for 1 h at room temperature in the dark and afterwards analyzed by flow cytometry using a 488 nm single beam laser (FACSCalibur, Becton Dickinson).

K562-TAX = assay: Cytotoxic MTS assay, K562-TAX; type: cell-based; conditions: Homo sapiens, 72 h, paclitaxel resistant subline of K562
Description: as §1, §2, §3

CCRF-CEM cells [4] = assay: BrU incorporation analysis (RNA synthesis); type: cell-based, human; set-up: RNA synthesis: unit not given here
Protocol: as §4
Cells were cultured and treated as above. Before harvesting, pulse-labeling with 1 mM 5-bromouridine (BrU) for 30 min followed. The cells were then fixed in 1% buffered paraformaldehyde with 0.05% of NP-40 in room temperature for 15 min, and then stored in 4°C overnight. Before measurement, they werewashed in PBS with 1% glycin, washed in PBS again, and stained by primary anti-BrDU antibody crossreacting to BrU (Exbio) for 30 min at room temperature in the dark. After another washing step in PBS cells were stained by secondary antimouse-FITC antibody (Sigma). Following the staining, cells were washed with PBS and fixed with 1% PBS buffered paraformaldehyde with 0.05% of NP-40 for 1 hour. Cells were washed by PBS, incubated with propidium iodide (0.1 mg/mL) and RNAse A (0.5 mg/mL) for 1 h at room temperature in the dark, and finally analyzed by flow cytometry using a 488 nm single beam laser (FACS Calibur, Becton Dickinson).

Structure (SMILES)	IC50 (HCT116p53-/-) [µM]	IC50 (K562) [µM]	IC50 (HCT116) [µM]	IC50 (MRC-5) [µM]	IC50 (A549) [µM]	IC50 (BJ) [µM]	pH3Ser10 (%) (CCRF-CEM cells [1]; 1 × IC50)	pH3Ser10 (%) (CCRF-CEM cells [1]; 5 × IC50)	G0/G1 (%) (CCRF-CEM cells [2]; 1 × IC50)	G2/M (%) (CCRF-CEM cells [2]; 1 × IC50)	S (%) (CCRF-CEM cells [2]; 1 × IC50)	G0/G1 (%) (CCRF-CEM cells [2]; 5 × IC50)	G2/M (%) (CCRF-CEM cells [2]; 5 × IC50)	S (%) (CCRF-CEM cells [2]; 5 × IC50)	Sub G1 (%) (CCRF-CEM cells [2]; 5 × IC50)	IC50 (CEM-DNR) [µM]	IC50 (U2OS) [µM]	IC50 (CCRF-CEM) [µM]	effect on DNA synthesis (in words) (CCRF-CEM cells [3])	DNA synthesis (CCRF-CEM cells [3]; 1 × IC50, BrDU incorporation)	further results
C=C(CBr)[C@@H]1CC[C@]2(C(=O)O)CC[C@]3(C)C(CCC4[C@@]5(C)CC[C@H](OC(C)=O)C(C)(C)C5CC[C@]43C)C12 (stereo partly drawn) [Compound 4, 3β-O-Acetyl-30-bromobetulinic acid]	14.1	21.7	15.9	24.2	13.2	31.7	1.34	2.35	47.3	16.8	35.9	33.7	23.2	43.0	39.7	15.3	21.2	5.7	inhibiting	38.6	Sub G1 (%) (CCRF-CEM cells [2]; 1 × IC50): 9.4%; DNA synthesis (CCRF-CEM cells [3]; 5 × IC50, BrDU incorporation): 5.80; IC50 (K562-TAX): 15.8 µM; effect on RNA synthesis (in words) (CCRF-CEM cells [4]): inhibiting; RNA synthesis (CCRF-CEM cells [4]; 1 × IC50, BrU incorporation): 56.3; RNA synthesis (CCRF-CEM cells [4]; 5 × IC50, BrU incorporation): 24.8
C=C(CN=[N+]=[N-])[C@@H]1CC[C@]2(C(=O)O)CC[C@]3(C)C(CCC4[C@@]5(C)CC[C@H](OC(C)=O)C(C)(C)C5CC[C@]43C)C12 (stereo partly drawn) [Compound 6, 3β-O-Acetyl-30-azidobetulinic acid]	19.7	12.3	18.6	20	17.6	26.7	1.80	2.68	49.3	20.3	30.4	41.4	23.8	34.8	70.0	19.2	20.9	7.4	inhibiting	33.0	Sub G1 (%) (CCRF-CEM cells [2]; 1 × IC50): 10.7%; DNA synthesis (CCRF-CEM cells [3]; 5 × IC50, BrDU incorporation): 1.00; IC50 (K562-TAX): 15.5 µM; effect on RNA synthesis (in words) (CCRF-CEM cells [4]): inhibiting; RNA synthesis (CCRF-CEM cells [4]; 1 × IC50, BrU incorporation): 14.1; RNA synthesis (CCRF-CEM cells [4]; 5 × IC50, BrU incorporation): 1.70
C=C(Cn1cc(-c2ccccc2C=O)nn1)[C@@H]1CC[C@]2(C(=O)O)CC[C@]3(C)C(CCC4[C@@]5(C)CC[C@H](OC(C)=O)C(C)(C)C5CC[C@]43C)C12 (stereo partly shown) [Compound 9b]	9.5	3.6	6.4	28.9	14.8	31.3	1.19	0.37	58.6	19.5	21.9	35.7	18.1	46.2	51.9	4	12.8	3.3	inhibiting	22.6	inhibition of the cell cycle in G0/G1 (in words) (CCRF-CEM cells [2]): highest accumulation; Sub G1 (%) (CCRF-CEM cells [2]; 1 × IC50): 10.8%; DNA synthesis (CCRF-CEM cells [3]; 5 × IC50, BrDU incorporation): 0.55; IC50 (K562-TAX): 3.9 µM; effect on RNA synthesis (in words) (CCRF-CEM cells [4]): inhibiting; RNA synthesis (CCRF-CEM cells [4]; 1 × IC50, BrU incorporation): 15.8; RNA synthesis (CCRF-CEM cells [4]; 5 × IC50, BrU incorporation): 0.08
C=C(Cn1cc(-c2ccccn2)nn1)[C@@H]1CC[C@]2(C(=O)O)CC[C@]3(C)C(CCC4[C@@]5(C)CC[C@H](OC(C)=O)C(C)(C)C5CC[C@]43C)C12 (stereo partly shown) [Compound 9c]	13.7	22.1	30.3	27.6	13.2	29.5	1.47	0.89	48.9	20.3	30.9	40.5	21.0	38.5	65.6	14.4	16	9	inhibiting	20.3	Sub G1 (%) (CCRF-CEM cells [2]; 1 × IC50): 7.2%; DNA synthesis (CCRF-CEM cells [3]; 5 × IC50, BrDU incorporation): 2.90; IC50 (K562-TAX): 13.8 µM; effect on RNA synthesis (in words) (CCRF-CEM cells [4]): inhibiting; RNA synthesis (CCRF-CEM cells [4]; 1 × IC50, BrU incorporation): 25.4; RNA synthesis (CCRF-CEM cells [4]; 5 × IC50, BrU incorporation): 0.40
C=C(Cn1cc(-c2ccccc2C=O)nn1)[C@@H]1CC[C@]2(C(=O)O)CC[C@]3(C)C(CCC4[C@@]5(C)CC[C@H](O)C(C)(C)C5CC[C@]43C)C12 (stereo partly shown) [Compound 11b]	26.9	> 50	26.3	> 50	> 50	> 50	0.88	1.19	59.0	15.7	25.3	45.5	19.1	35.4	65.6	11.5	> 50	8.5	inhibiting	20.0	DNA synthesis (CCRF-CEM cells [3]; 5 × IC50, BrDU incorporation): 6.40; IC50 (K562-TAX): 13.7 µM; effect on RNA synthesis (in words) (CCRF-CEM cells [4]): inhibiting; RNA synthesis (CCRF-CEM cells [4]; 1 × IC50, BrU incorporation): 48.3; RNA synthesis (CCRF-CEM cells [4]; 5 × IC50, BrU incorporation): 38.1
